These results are taken from patent US20100076015A1, “Aminopyridine Derivatives” (VANTIA LIMITED, priority 2008, published 2010).

In this assay the target is T1, Human KLK1 (Homo sapiens, UniProt P06870).
T1 construct: purchased Callbiochem (Calbiochem)
T1 sequence (P06870 25-262): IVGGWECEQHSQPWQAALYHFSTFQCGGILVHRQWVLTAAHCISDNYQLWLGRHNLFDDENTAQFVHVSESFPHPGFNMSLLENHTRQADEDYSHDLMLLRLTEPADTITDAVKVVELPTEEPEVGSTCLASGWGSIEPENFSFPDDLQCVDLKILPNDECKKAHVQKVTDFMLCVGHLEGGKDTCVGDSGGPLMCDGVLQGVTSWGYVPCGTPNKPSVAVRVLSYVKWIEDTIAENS
Kind of assay: Determination of the IC50 for KLK1 (fluorogenic substrate H-DVal-Leu-Arg-AFC). The assay is classed as biochemical. Particulars: 37° C. Summed up: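 IC50 values reflect residual human KLK1 activity, read as initial rate from optical absorbance change at 410 nm. Incubations ran at 37° C with H-DVal-Leu-Arg-AFC as substrate across a compound concentration series.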
Consider `COc1ccc(C[C@H](NC(=O)[C@H]2CCCN2C)C(=O)NCc2ccc(N)nc2)cc1` [Example 100, (R)-1-Methyl-pyrrolidine-2-carboxylic acid [(S)-1-[(6-amino-pyridin-3-ylmethyl)-carbamoyl]-2-(4-methoxy-phenyl)-ethyl]-amide], for which the half-inhibitory concentration (IC50) is 0.0858 µM.
Next, `CN1CCC[C@@H]1C(=O)N[C@@H](Cc1ccccc1)C(=O)NCc1ccc(N)nc1` [Example 101, (R)-1-Methyl-pyrrolidine-2-carboxylic acid {(S)-1-[(6-amino-pyridin-3-ylmethyl)-carbamoyl]-2-phenyl-ethyl}-amide]: 0.0241 µM.
`CN1CCC[C@@H]1C(=O)N[C@@H](Cc1ccc(C(C)(C)C)cc1)C(=O)NCc1ccc(N)nc1` [Example 102, (R)-1-Methyl-pyrrolidine-2-carboxylic acid [(S)-1-[(6-amino-pyridin-3-ylmethyl)-carbamoyl]-2-(4-tert-butyl-phenyl)-ethyl]-amide] had an IC50 of 0.258 µM. This IC50 is about 11-fold higher than that of the molecule before.
For `CN1CCC[C@@H]1C(=O)N[C@@H](Cc1cccc(Cl)c1)C(=O)NCc1ccc(N)nc1` [Example 103, (R)-1-Methyl-pyrrolidine-2-carboxylic acid [(S)-1-[(6-amino-pyridin-3-ylmethyl)-carbamoyl]-2-(3-chloro-phenyl)-ethyl]-amide], the 50% inhibitory concentration (IC50) came out at 0.0054 µM. This IC50 is about 48-fold lower than that of the molecule before.
As to `Cc1ccccc1C[C@H](NC(=O)[C@H]1CCCN1C)C(=O)NCc1ccc(N)nc1` [Example 104, (R)-1-Methyl-pyrrolidine-2-carboxylic acid {(S)-1-[(6-amino-pyridin-3-ylmethyl)-carbamoyl]-2-o-tolyl-ethyl}-amide], the midpoint of inhibition, the IC50, lay at 0.0244 µM. Compared with the last molecule, the IC50 is about 4.5-fold higher.
For `Cc1cccc(C[C@H](NC(=O)[C@H]2CCCN2C)C(=O)NCc2ccc(N)nc2)c1` [Example 105, (R)-1-Methyl-pyrrolidine-2-carboxylic acid {(S)-1-[(6-amino-pyridin-3-ylmethyl)-carbamoyl]-2-m-tolyl-ethyl}-amide] the value was 0.0038 µM; for `Cc1ccc(C[C@H](NC(=O)[C@H]2CCCN2C)C(=O)NCc2ccc(N)nc2)cc1` [Example 106, (R)-1-Methyl-pyrrolidine-2-carboxylic acid {(S)-1-[(6-amino-pyridin-3-ylmethyl)-carbamoyl]-2-p-tolyl-ethyl}-amide], 0.0039 µM.
For `COc1cccc(C[C@H](NC(=O)[C@H]2CCCN2C)C(=O)NCc2ccc(N)nc2)c1` [Example 107, (R)-1-Methyl-pyrrolidine-2-carboxylic acid [(S)-1-[(6-amino-pyridin-3-ylmethyl)-carbamoyl]-2-(3-methoxy-phenyl)-ethyl]-amide] the value was 0.0712 µM; for `CN1CCC[C@@H]1C(=O)N[C@@H](Cc1ccccc1F)C(=O)NCc1ccc(N)nc1` [Example 108, (R)-1-Methyl-pyrrolidine-2-carboxylic acid [(S)-1-[(6-amino-pyridin-3-ylmethyl)-carbamoyl]-2-(2-fluoro-phenyl)-ethyl]-amide], 0.034 µM.
Next, `CN1CCC[C@@H]1C(=O)N[C@@H](Cc1ccccc1Cl)C(=O)NCc1ccc(N)nc1` [Example 109, (R)-1-Methyl-pyrrolidine-2-carboxylic acid [(S)-1-[(6-amino-pyridin-3-ylmethyl)-carbamoyl]-2-(2-chloro-phenyl)-ethyl]-amide]: 0.0217 µM; `CN1CCC[C@@H]1C(=O)N[C@@H](Cc1ccc(Cl)cc1Cl)C(=O)NCc1ccc(N)nc1` [Example 110, (R)-1-Methyl-pyrrolidine-2-carboxylic acid [(S)-1-[(6-amino-pyridin-3-ylmethyl)-carbamoyl]-2-(2,4-dichloro-phenyl)-ethyl]-amide]: 0.004 µM; `CN1CCC[C@@H]1C(=O)N[C@@H](Cc1ccccc1C(F)(F)F)C(=O)NCc1ccc(N)nc1` [Example 111, (R)-1-Methyl-pyrrolidine-2-carboxylic acid [(S)-1-[(6-amino-pyridin-3-ylmethyl)-carbamoyl]-2-(2-trifluoromethyl-phenyl)-ethyl]-amide]: 0.015 µM.
For `CN1CCC[C@@H]1C(=O)N[C@@H](Cc1ccncc1)C(=O)NCc1ccc(N)nc1` [Example 112, (R)-1-Methyl-pyrrolidine-2-carboxylic acid {(S)-1-[(6-amino-pyridin-3-ylmethyl)-carbamoyl]-2-pyridin-4-yl-ethyl}-amide], the IC50 worked out at 0.257 µM.
In turn, `CN1CCC[C@@H]1C(=O)N[C@@H](Cc1c[nH]c2ccccc12)C(=O)NCc1ccc(N)nc1` [Example 113, (R)-1-Methyl-pyrrolidine-2-carboxylic acid [(S)-1-[(6-amino-pyridin-3-ylmethyl)-carbamoyl]-2-(1H-indol-3-yl)-ethyl]-amide] registered an IC50 of 0.0145 µM.
For `CN1CCC[C@@H]1C(=O)N[C@@H](Cc1ccc2ccccc2n1)C(=O)NCc1ccc(N)nc1` [Example 114, (R)-1-Methyl-pyrrolidine-2-carboxylic acid {(S)-1-[(6-amino-pyridin-3-ylmethyl)-carbamoyl]-2-quinolin-2-yl-ethyl}-amide] the value was 0.0284 µM; for `CN1CCC[C@@H]1C(=O)N[C@@H](CC1CCCCC1)C(=O)NCc1ccc(N)nc1` [Example 115, (R)-1-Methyl-pyrrolidine-2-carboxylic acid {(S)-1-[(6-amino-pyridin-3-ylmethyl)-carbamoyl]-2-cyclohexyl-ethyl}-amide], 0.0195 µM; for `CN1CCC[C@H]1C(=O)N[C@@H](Cc1ccc(F)c(F)c1)C(=O)NCc1ccc(N)nc1` [Example 116, (S)-1-Methyl-pyrrolidine-2-carboxylic acid [(S)-1-[(6-amino-pyridin-3-ylmethyl)-carbamoyl]-2-(3,4-difluoro-phenyl)-ethyl]-amide], 0.0161 µM.
Next, `CC(C)N1CCC[C@@H]1C(=O)N[C@@H](Cc1ccc(Cl)c(Cl)c1)C(=O)NCc1ccc(N)nc1` [Example 117, (R)-1-Isopropyl-pyrrolidine-2-carboxylic acid [(S)-1-[(6-amino-pyridin-3-ylmethyl)-carbamoyl]-2-(3,4-dichloro-phenyl)-ethyl]-amide]: 0.00045 µM; `CC(C)N1CCC[C@@H]1C(=O)N[C@@H](Cc1cccc2ccccc12)C(=O)NCc1ccc(N)nc1` [Example 118, (R)-1-Isopropyl-pyrrolidine-2-carboxylic acid {(S)-1-[(6-amino-pyridin-3-ylmethyl)-carbamoyl]-2-naphthalen-1-yl-ethyl}-amide]: 0.0021 µM; `CC(C)N1CCC[C@@H]1C(=O)N[C@@H](Cc1ccc(F)cc1)C(=O)NCc1ccc(N)nc1` [Example 119, (R)-1-Isopropyl-pyrrolidine-2-carboxylic acid [(S)-1-[(6-amino-pyridin-3-ylmethyl)-carbamoyl]-2-(4-fluoro-phenyl)-ethyl]-amide]: 0.0018 µM.
`CC(C)N1CCC[C@@H]1C(=O)N[C@@H](Cc1cccc(Cl)c1)C(=O)NCc1ccc(N)nc1` [Example 120, (R)-1-Isopropyl-pyrrolidine-2-carboxylic acid [(S)-1-[(6-amino-pyridin-3-ylmethyl)-carbamoyl]-2-(3-chloro-phenyl)-ethyl]-amide] displayed a half-inhibitory concentration (IC50) of 0.0016 µM.
Next, `Cc1ccccc1C[C@H](NC(=O)[C@H]1CCCN1C(C)C)C(=O)NCc1ccc(N)nc1` [Example 121, (R)-1-Isopropyl-pyrrolidine-2-carboxylic acid {(S)-1-[(6-amino-pyridin-3-ylmethyl)-carbamoyl]-2-o-tolyl-ethyl}-amide]: 0.011 µM.
Next, `Cc1cccc(C[C@H](NC(=O)[C@H]2CCCN2C(C)C)C(=O)NCc2ccc(N)nc2)c1` [Example 122, (R)-1-Isopropyl-pyrrolidine-2-carboxylic acid {(S)-1-[(6-amino-pyridin-3-ylmethyl)-carbamoyl]-2-m-tolyl-ethyl}-amide]: 0.0018 µM.
For `Cc1ccc(C[C@H](NC(=O)[C@H]2CCCN2C(C)C)C(=O)NCc2ccc(N)nc2)cc1` [Example 123, (R)-1-Isopropyl-pyrrolidine-2-carboxylic acid {(S)-1-[(6-amino-pyridin-3-ylmethyl)-carbamoyl]-2-p-tolyl-ethyl}-amide] the value was 0.0014 µM.
`COc1cccc(C[C@H](NC(=O)[C@H]2CCCN2C(C)C)C(=O)NCc2ccc(N)nc2)c1` [Example 124, (R)-1-Isopropyl-pyrrolidine-2-carboxylic acid [(S)-1-[(6-amino-pyridin-3-ylmethyl)-carbamoyl]-2-(3-methoxy-phenyl)-ethyl]-amide] had an IC50 of 0.0368 µM. Against the preceding molecule, the IC50 is about 26-fold higher.
Next, `CC(C)N1CCC[C@@H]1C(=O)N[C@@H](Cc1ccccc1F)C(=O)NCc1ccc(N)nc1` [Example 125, (R)-1-Isopropyl-pyrrolidine-2-carboxylic acid [(S)-1-[(6-amino-pyridin-3-ylmethyl)-carbamoyl]-2-(2-fluoro-phenyl)-ethyl]-amide]: 0.0088 µM; `CC(C)N1CCC[C@@H]1C(=O)N[C@@H](Cc1ccccc1Cl)C(=O)NCc1ccc(N)nc1` [Example 126, (R)-1-Isopropyl-pyrrolidine-2-carboxylic acid [(S)-1-[(6-amino-pyridin-3-ylmethyl)-carbamoyl]-2-(2-chloro-phenyl)-ethyl]-amide]: 0.0093 µM; `CC(C)N1CCC[C@@H]1C(=O)N[C@@H](Cc1ccc(Cl)cc1Cl)C(=O)NCc1ccc(N)nc1` [Example 127, (R)-1-Isopropyl-pyrrolidine-2-carboxylic acid [(S)-1-[(6-amino-pyridin-3-ylmethyl)-carbamoyl]-2-(2,4-dichloro-phenyl)-ethyl]-amide]: 0.0009 µM.
Next, `CC(C)N1CCC[C@@H]1C(=O)N[C@@H](Cc1ccccc1C(F)(F)F)C(=O)NCc1ccc(N)nc1` [Example 128, (R)-1-Isopropyl-pyrrolidine-2-carboxylic acid [(S)-1-[(6-amino-pyridin-3-ylmethyl)-carbamoyl]-2-(2-trifluoromethyl-phenyl)-ethyl]-amide]: 0.0076 µM.
Take `CC(C)N1CCC[C@@H]1C(=O)N[C@@H](Cc1ccncc1)C(=O)NCc1ccc(N)nc1` [Example 129, (R)-1-Isopropyl-pyrrolidine-2-carboxylic acid {(S)-1-[(6-amino-pyridin-3-ylmethyl)-carbamoyl]-2-pyridin-4-yl-ethyl}-amide]: half-maximal inhibition (IC50) was put at 0.215 µM.
